Measurements taken from the SangsterLogP compilation.

What was measured:
[1] = method code SF, from DOI: 10.1016/0006-2952(92)90292-q, PMID: 1371213; conditions: pH 7.4
[2] = method code SF-AS, from PMID: 7170648; conditions: pH 7.4
[3] = method code SF, from DOI: 10.1016/s0960-894x(01)80459-5
[4] = method code SF-RC, from DOI: 10.2174/1874471011003010009, PMID: 20657759; conditions: pH 7.4
[5] = not given; remark: listed apart in the source
[6] = method code SF, from DOI: 10.1021/jm00088a010, PMID: 1350310
[7] = method code SF-HPLC, from DOI: 10.1016/j.ejps.2010.08.004, PMID: 20728535
[8] = not given; remark: listed apart in the source
[9] = not given; remark: listed apart in the source
[10] = method code SF, from DOI: 10.1021/jm950645n, PMID: 8576912
[11] = not given; remark: listed apart in the source
[12] = method code SF-HPLC, from DOI: 10.1021/js950484a, PMID: 9002474; conditions: pH 7.4
[13] = method code SF-EIA, from DOI: 10.1016/s0022-2275(20)42614-8, PMID: 2280184; conditions: pH 1.0
[14] = method code SF, from DOI: 10.1021/jm980124a, PMID: 9685245; conditions: pH 13.0
[15] = method code SF-RC, from DOI: 10.1016/s0969-8051(00)00170-0, PMID: 11323238; conditions: pH 7.4
[16] = method code SF-HPLC, from DOI: 10.1002/jlac.1995199512306
[17] = method code SF-AS, from DOI: 10.1021/ja00198a050
[18] = method code SF, from DOI: 10.1021/jm000996o, PMID: 11087582; conditions: pH 7.2
[19] = method code SF-HPLC, from DOI: 10.1211/146080899128734820; conditions: pH 2.0
[20] = not given; remark: listed apart in the source
[21] = not given; remark: listed apart in the source
[22] = method code SF, from DOI: 10.1021/jm020886c, PMID: 12852752; conditions: pH 7.4
[23] = not given; remark: listed apart in the source
[24] = from Medić-Šarić, M; Mornar, A.; Badovinac-Črnjević, T; Jasprica, I. (2004). Experimental and calculation procedures for molecular lipophilicity: A comparative study for …; conditions: pH 7.4
[25] = method code SF-RC, from DOI: 10.1016/j.nucmedbio.2016.01.003, PMID: 27067043; conditions: pH 7.4
[26] = method code SF-HPLC, from Xiong, Ð. (2009). Apparent partiton coefficient of hawthorn leaf flavonoids in phospholipids complex. Chinese Traditional Patent Medicine, 31(7)1075-1078.
[27] = not given; remark: listed apart in the source
[28] = method code SF, from DOI: 10.1021/jm00169a014, PMID: 2362268; conditions: pH 7.4
[29] = method code SF-HPLC, from DOI: 10.1002/jps.2600840603, PMID: 7562403; conditions: pH 7.4
[30] = not given; remark: listed apart in the source
[31] = not given; remark: listed apart in the source
[32] = method code SF-HPLC, from DOI: 10.1016/j.ejps.2006.07.007, PMID: 16997537; conditions: pH 7.4
[33] = method code SF-AS, from Zhang, L.; Fu, G.; Wan, Y. (2014). Determination of verbascoside and its oil-water partition coefficient by ultraviolet spectrophotometry. Shipin Anquan ZhiliangJjiance Xuebao, 5(2)528-532.
[34] = not given; remark: listed apart in the source
[35] = method code SF-RC, from DOI: 10.1021/acs.jmedchem.6b01291.s001, PMID: 27696839; conditions: pH 7.4
[36] = not given; remark: listed apart in the source
[37] = method code SF-HPLC, from Yao, Y.; Liao, Q.; Zeng, L.; Zhang, L.; Ma, Y.; Zeng, Y. (2009). Determination of the apparent oil-water partition coeffcient of neoandrographolide and effect of pH. Pharmacy Today, 19(10)8-10.; conditions: pH 6.0

With `CN(CC(=O)N[C@@H]1CC[C@@]2(O)[C@H]3Cc4ccc(O)c5c4[C@@]2(CCN3CC2CC2)[C@H]1O5)c1ccc([N+](=O)[O-])c2nonc12` as the compound, how does the logD [1] read?
Its logD is 1.

For `CCN(Cc1cc(Nc2ccnc3cc(Cl)ccc23)ccc1O)C(=O)N1CCN(C)CC1`, which logD [2] is on record?
The logD was 3.43.

Which logP does the source give for `CC(=O)OCC(=O)[C@@]1(O)[C@H](C)C[C@H]2[C@@H]3CCC4=CC(=O)C=C[C@]4(C)[C@@]3(F)[C@@H](O)C[C@@]21C` here?
Its logP is 2.59.

With `CCCCCCOP(=O)(OCC1CC(O)C(n2cnc3c(N)ncnc32)O1)OCC1OC(n2cc(C)c(=O)[nH]c2=O)CC1N=[N+]=[N-]` (stereo not drawn) as the compound, how does the logP [3] read?
Its logP is 1.11.

Which logD [4] does the source give for `COc1ccc2cccc(N3CCN(CCNC(=O)c4ccc(F)cc4)CC3)c2c1` here?
Its logD is 4.14.

Which logP [5] does the source give for `CCC1(C)C2CN(Cc3ccccc3)CC1CN(CC1CCCCC1)C2` (stereo not drawn) here?
The logP was 6.65.

With `O=C(COc1ccc(OCCNCC(O)COc2ccccc2)cc1)N1CCc2ccccc2C1` (stereo not drawn) as the compound, how does the logP [6] read?
The logP was 3.6.

For `CCCCCCCCCCCCCCCCCC(=O)OC[C@@H]1O[C@H](n2ccc(N)nc2=O)CS1`, which logP [7] is on record?
Its logP is 1.82.

For `CC(C)C[C@H](NC(=O)Cc1ccc(C(=O)O)c(OCCF)c1)c1ccccc1N1CCCCC1`, which logP [8] is on record?
Its logP is 2.39.

Which logP [9] does the source give for `CC(=O)OC1C(c2ccc(=O)oc2)[C@@]2(C)CC[C@H]3[C@@H](CC[C@@H]4CC(O)CC[C@@]43C)[C@]23OC13` (stereo partly drawn) here?
Its logP is 3.27.

With `C#CCN(Cc1ccc2[nH]c(C)nc(=O)c2c1)c1ccc(C(=O)NCc2cccc([N+](=O)[O-])c2)cc1` as the compound, how does the logP [10] read?
The logP was 3.7.

Which logP [11] does the source give for `CCCCCCCCc1ccc(OCC(=O)Cn2cc(C(C)=O)c3cc(C(=O)O)ccc32)cc1` here?
The logP was 5.8.

For `CCCCCCCC/C=C\CCCCCCCC(=O)NCc1ccc(O)c(OC)c1`, which logD [12] is on record?
The logD was 8.02.

Which logD [13] does the source give for `C[C@H](CCC(=O)NCC(=O)O)[C@H]1CC[C@H]2[C@@H]3C[C@H](O)[C@@H]4C[C@H](O)CC[C@]4(C)[C@H]3CC[C@]12C` here?
The logD was 2.15.

Which logD [14] does the source give for `CCC(C)c1ccc(N2CCCN(c3ccc(C(C)CC)cc3)C2=N)cc1` (stereo not drawn) here?
The logD was 5.28.

Which logD [15] does the source give for `COc1cc2ncnc(N3CCC(n4c(=O)c5cc(C)ccc5n(C)c4=O)CC3)c2cc1OC` here?
Its logD is 3.14.

Which logP [16] does the source give for `Cc1cn(C2CC(N=[N+]=[N-])C(COP(=O)(OCc3ccc(Cl)cc3)OCC3OC(n4cc(C)c(=O)[nH]c4=O)CC3N=[N+]=[N-])O2)c(=O)[nH]c1=O` (stereo not drawn) here?
Its logP is 2.06.

For `CC(C)(C)c1ccc2c(c1)OCCOCCOCCOCCOCCOCCOCCOCCOCCO2`, which logP [17] is on record?
Its logP is 1.69.

With `Cc1cn(C2CC(N=[N+]=[N-])C(COP(=O)(OCCSC(=O)C(C)(C)C)OCCSC(=O)C(C)(C)C)O2)c(=O)[nH]c1=O` (stereo not drawn) as the compound, how does the logD [18] read?
The logD was 3.73.

For `CC[C@H](C)C(=O)O[C@H]1C[C@@H](C)C=C2C=C[C@H](C)[C@H](CC[C@@H]3C[C@@H](O)CC(=O)O3)[C@H]21`, which logD [19] is on record?
Its logD is 4.04.

With `CC(C)(C)OC(=O)NC(Cc1ccccc1)C(=O)N1CCCC1C(=O)NCc1ccc(N)cc1` (stereo not drawn) as the compound, how does the logP [20] read?
Its logP is 2.34.

Which logP [21] does the source give for `CN1CN(c2ccccc2)C2(CCN(CCCC(=O)c3ccc(F)cc3)CC2)C1=O` here?
Its logP is 3.37.

With `Cc1ccc(CCOCCCS(=O)(=O)CCNCCc2ccc(O)c3[nH]c(=O)sc23)cc1-c1nccs1` as the compound, how does the logD [22] read?
The logD was 1.44.

For `CCCN(CCCCN1C(=O)CC2(CCCC2)C(O)C1=O)C1COc2cccc(OC)c2C1` (stereo not drawn), which logP [23] is on record?
Its logP is 4.1.

Which logD [24] does the source give for `COc1ccccc1C(c1cc2ccccc2oc1=O)c1cc2ccccc2oc1=O` here?
The logD was 2.5.

For `C=CC(=O)NCCCC[C@H](NC(=O)Cc1ccccc1)C(=O)N1CCN(c2cccc(C)n2)CC1`, which logD [25] is on record?
Its logD is 2.09.

For `C[C@@H]1O[C@@H](O[C@@H]2[C@@H](O)[C@H](O)[C@@H](CO)O[C@H]2c2c(O)cc(O)c3c(=O)cc(-c4ccc(O)cc4)oc23)[C@H](O)[C@H](O)[C@H]1O`, which logP [26] is on record?
Its logP is -0.92.

Which logP [27] does the source give for `CC(C)C(Nc1ccc(C(F)(F)F)cc1Cl)C(=O)OC(C#N)c1cccc(Oc2ccccc2)c1` (racemic) here?
The logP was 5.5.

For `C=C1[C@@H](C)[C@H]2[C@H](Cc3ccccc3)NC(=O)[C@]23OC(=O)/C=C\[C@H](O)CCC[C@@H](C)C/C=C/[C@H]3[C@@H]1O`, which logD [28] is on record?
The logD was 3.37.

With `CCCC1O[C@@H]2C[C@H]3[C@@H]4CCC5=CC(=O)C=C[C@]5(C)[C@H]4[C@@H](O)C[C@]3(C)[C@]2(C(=O)CO)O1` (stereo partly drawn) as the compound, how does the logD [29] read?
The logD was 3.55.

Which logP [30] does the source give for `O=C(CCCCCCCCCCn1ccnc1[N+](=O)[O-])Nc1ccc(-c2nc3ccccc3s2)cc1` here?
The logP was 1.99.

With `CC1C=C(C(=O)Nc2ccc(-c3ccccc3S(N)(=O)=O)cc2)N(c2ccc3ccnc(N)c3c2)N1` (stereo not drawn) as the compound, how does the logP [31] read?
Its logP is 2.6.

For `CCN(CC)C(=O)COC(=O)C1OC(Oc2cc3oc(-c4ccc(O)cc4)cc(=O)c3c(O)c2O)C(O)C(O)C1O` (stereo not drawn), which logD [32] is on record?
The logD was 1.48.

For `C[C@@H]1O[C@@H](OC2[C@@H](O)C(OCCc3ccc(O)c(O)c3)OC(CO)[C@H]2OC(=O)/C=C/c2ccc(O)c(O)c2)[C@H](O)C(O)C1O` (stereo partly drawn), which logP [33] is on record?
Its logP is -0.57.

Which logP [34] does the source give for `COC(=O)CC(O)CC(O)C=Cn1c(C(C)C)nc(-c2cccc(Br)c2)c1-c1ccc(F)cc1` (stereo not drawn) here?
Its logP is 2.8.

With `O=C(NO)C1CC(O)CN1C(=O)c1ccc(C#Cc2ccc(OCCCCCF)cc2)cc1` (stereo not drawn) as the compound, how does the logD [35] read?
Its logD is 2.5.

For `CCC12C=C(C(=O)OCCOC(C)=O)n3c4c(c5ccccc53)CCN(CCC1)C42` (stereo not drawn), which logP [36] is on record?
The logP was 4.5.

Which logD [37] does the source give for `C=C1CC[C@@H]2[C@](C)(CO[C@@H]3O[C@H](CO)[C@@H](O)[C@H](O)[C@H]3O)CCC[C@@]2(C)[C@@H]1CCC1=CCOC1=O` here?
Its logD is 0.44.
